Columns and labels:
Assay type in all cases: functional
MOLT-4 = test: Cytotoxicity against human MOLT4 cells after 48 hrs by SRB assay; conditions: MOLT-4, 48 h; for GI50: read-out: pGI50 (converted)
NCI-H322M = test: Cytotoxicity against human NCI-H322M cells after 48 hrs by SRB assay; conditions: for GI50: read-out: pGI50 (converted)
SW-620 = test: Cytotoxicity against human SW620 cells after 48 hrs by SRB assay; conditions: SW-620, 48 h; for GI50: read-out: pGI50 (converted)
M14 [1] = test: Cytotoxicity against human M14 cells after 48 hrs by SRB assay; conditions: M14, 48 h; for GI50: read-out: pGI50 (converted)
A498 = test: Cytotoxicity against human A498 cells after 48 hrs by SRB assay; conditions: A498, 48 h; for GI50: read-out: pGI50 (converted)
SN12C [2] = test: Cytotoxicity against human SN12C cells after 48 hrs by SRB assay; conditions: for CC50: read-out: pLC50 (the source's name) (converted)
BT-549 = test: Cytotoxicity against human BT549 cells after 48 hrs by SRB assay; conditions: BT-549, 48 h; for GI50: read-out: pGI50 (converted)
T47D = test: Cytotoxicity against human T47D cells after 48 hrs by SRB assay; conditions: for GI50: read-out: pGI50 (converted); for CC50: read-out: pLC50 (the source's name) (converted)
NCI-H226 [3] = test: Growth inhibition of human NCI-H226 cells assessed as cell growth at 10^-8 M incubated for 48 hrs by sulforhodamine B assay relative to control; conditions: NCI-H226, 48 h, read-out: Activity
HT-29 = test: Growth inhibition of human HT-29 cells assessed as cell growth at 10^-8 M incubated for 48 hrs by sulforhodamine B assay relative to control; conditions: HT-29, 48 h, read-out: Activity
SNB-75 = test: Growth inhibition of human SNB75 cells assessed as cell growth at 10^-8 M incubated for 48 hrs by sulforhodamine B assay relative to control; conditions: SNB-75, 48 h, read-out: Activity
DU-145 [4] = test: Growth inhibition of human DU145 cells assessed as cell growth at 10^-8 M incubated for 48 hrs by sulforhodamine B assay relative to control; conditions: DU-145, 48 h, read-out: Activity
Hs-578T [5] = test: Growth inhibition of human Hs 578T cells assessed as cell growth at 10^-8 M incubated for 48 hrs by sulforhodamine B assay relative to control; conditions: read-out: Activity
HOP-62 [6] = test: Growth inhibition of human HOP62 cells assessed as cell growth at 10^-7 M incubated for 48 hrs by sulforhodamine B assay relative to control; conditions: HOP-62, 48 h, read-out: Activity
NCI-H460 = test: Growth inhibition of human NCI-H460 cells assessed as cell growth at 10^-7 M incubated for 48 hrs by sulforhodamine B assay relative to control; conditions: NCI-H460, 48 h, read-out: Activity
NCI-H522 = test: Growth inhibition of human NCI-H522 cells assessed as cell growth at 10^-7 M incubated for 48 hrs by sulforhodamine B assay relative to control; conditions: NCI-H522, 48 h, read-out: Activity
M14 [7] = test: Growth inhibition of human M14 cells assessed as cell growth at 10^-7 M incubated for 48 hrs by sulforhodamine B assay relative to control; conditions: M14, 48 h, read-out: Activity
IGROV-1 = test: Growth inhibition of human IGROV1 cells assessed as cell growth at 10^-7 M incubated for 48 hrs by sulforhodamine B assay relative to control; conditions: IGROV-1, 48 h, read-out: Activity
OVCAR-4 = test: Growth inhibition of human OVCAR4 cells assessed as cell growth at 10^-7 M incubated for 48 hrs by sulforhodamine B assay relative to control; conditions: OVCAR-4, 48 h, read-out: Activity
A549 = test: Growth inhibition of human A549/ATCC cells assessed as cell growth at 10^-6 M incubated for 48 hrs by sulforhodamine B assay relative to control; conditions: A549, 48 h, read-out: Activity
HOP-62 [8] = test: Growth inhibition of human HOP62 cells assessed as cell growth at 10^-6 M incubated for 48 hrs by sulforhodamine B assay relative to control; conditions: HOP-62, 48 h, read-out: Activity
KM12 = test: Growth inhibition of human KM12 cells assessed as cell growth at 10^-6 M incubated for 48 hrs by sulforhodamine B assay relative to control; conditions: KM12, 48 h, read-out: Activity
Hs-578T [9] = test: Growth inhibition of human Hs 578T cells assessed as cell growth at 10^-6 M incubated for 48 hrs by sulforhodamine B assay relative to control; conditions: read-out: Activity
NCI-H226 [10] = test: Growth inhibition of human NCI-H226 cells assessed as cell growth at 10^-5 M incubated for 48 hrs by sulforhodamine B assay relative to control; conditions: NCI-H226, 48 h, read-out: Activity
HCT-15 = test: Growth inhibition of human HCT15 cells assessed as cell growth at 10^-5 M incubated for 48 hrs by sulforhodamine B assay relative to control; conditions: HCT-15, 48 h, read-out: Activity
MDA-MB-435 = test: Growth inhibition of human MDA-MB-435 cells assessed as cell growth at 10^-5 M incubated for 48 hrs by sulforhodamine B assay relative to control; conditions: MDA-MB-435, 48 h, read-out: Activity
OVCAR-5 = test: Growth inhibition of human OVCAR5 cells assessed as cell growth at 10^-5 M incubated for 48 hrs by sulforhodamine B assay relative to control; conditions: OVCAR-5, 48 h, read-out: Activity
ACHN = test: Growth inhibition of human ACHN cells assessed as cell growth at 10^-5 M incubated for 48 hrs by sulforhodamine B assay relative to control; conditions: read-out: Activity
SN12C [11] = test: Growth inhibition of human SN12C cells assessed as cell growth at 10^-5 M incubated for 48 hrs by sulforhodamine B assay relative to control; conditions: read-out: Activity
DU-145 [12] = test: Growth inhibition of human DU145 cells assessed as cell growth at 10^-5 M incubated for 48 hrs by sulforhodamine B assay relative to control; conditions: DU-145, 48 h, read-out: Activity
K562 = test: Growth inhibition of human K562 cells assessed as cell growth at 10^-4 M incubated for 48 hrs by sulforhodamine B assay relative to control; conditions: K562, 48 h, read-out: Activity
UACC-62 = test: Growth inhibition of human UACC62 cells assessed as cell growth at 10^-8 M incubated for 48 hrs by sulforhodamine B assay relative to control; conditions: UACC-62, 48 h, read-out: Activity
786-0 = test: Cytotoxicity against human 786-0 cells after 48 hrs by SRB assay; conditions: 786-0, 48 h; for GI50: read-out: pGI50 (converted)
[13] = read-out: LC50 (the source's name)
[14] = read-out: pLC50 (the source's name) (converted)

SMILES: C#C[C@@]1(O)[C@@H](CO)O[C@@H](n2ccc3c(N)ncnc32)[C@@H]1O
- CC50 (MOLT-4; [13]): > 100 µM
- TGI (MOLT-4; read-out: TGI): > 100 µM
- GI50 (MOLT-4): 0.617 µM
- TGI (MOLT-4; read-out: pTGI (converted)): > 100 µM
- TGI (NCI-H322M; read-out: TGI): 6.08 µM
- GI50 (NCI-H322M): 1.29 µM
- CC50 (NCI-H322M; [14]): 50.1 µM
- TGI (NCI-H322M; read-out: pTGI (converted)): 6.03 µM
- TGI (SW-620; read-out: TGI): 12.7 µM
- GI50 (SW-620): 0.49 µM
- CC50 (SW-620; [14]): > 100 µM
- TGI (SW-620; read-out: pTGI (converted)): 12.6 µM
- TGI (M14 [1]; read-out: TGI): 3 µM
- GI50 (M14 [1]): 1.41 µM
- CC50 (M14 [1]; [14]): 6.31 µM
- TGI (M14 [1]; read-out: pTGI (converted)): 3.02 µM
- TGI (A498; read-out: TGI): 3.74 µM
- GI50 (A498): 1.66 µM
- TGI (A498; read-out: pTGI (converted)): 3.72 µM
- TGI (SN12C [2]; read-out: TGI): 3.91 µM
- GI50 (SN12C [2]; read-out: pGI50 (converted)): 0.794 µM
- CC50 (SN12C [2]): 38 µM
- TGI (SN12C [2]; read-out: pTGI (converted)): 3.89 µM
- TGI (BT-549; read-out: TGI): 3.64 µM
- GI50 (BT-549): 1.62 µM
- CC50 (BT-549; [14]): 8.13 µM
- TGI (BT-549; read-out: pTGI (converted)): 3.63 µM
- TGI (T47D; read-out: TGI): 2.14 µM
- GI50 (T47D): 0.447 µM
- CC50 (T47D): 7.59 µM
- TGI (T47D; read-out: pTGI (converted)): 2.14 µM
- growth at 0.01 µM (NCI-H226 [3]): 94%
- growth at 0.01 µM (HT-29): 99%
- growth at 0.01 µM (SNB-75): 86%
- growth at 0.01 µM (DU-145 [4]): 103%
- growth at 0.01 µM (Hs-578T [5]): 97%
- growth at 0.1 µM (HOP-62 [6]): 103%
- growth at 0.1 µM (NCI-H460): 91%
- growth at 0.1 µM (NCI-H522): 78%
- growth at 0.1 µM (M14 [7]): 99%
- growth at 0.1 µM (IGROV-1): 100%
- growth at 0.1 µM (OVCAR-4): 97%
- growth at 1 µM (A549): 56%
- growth at 1 µM (HOP-62 [8]): 77%
- growth at 1 µM (KM12): 67%
- growth at 1 µM (Hs-578T [9]): 114%
- growth at 10 µM (NCI-H226 [10]): -42%
- growth at 10 µM (HCT-15): -24%
- growth at 10 µM (MDA-MB-435): -62%
- growth at 10 µM (OVCAR-5): -8%
- growth at 10 µM (ACHN): -18%
- growth at 10 µM (SN12C [11]): -31%
- growth at 10 µM (DU-145 [12]): -8%
- growth at 100 µM (K562): 2%
- growth at 0.01 µM (UACC-62): 97%
- TGI (786-0; read-out: TGI): 6.15 µM
- GI50 (786-0): 1.62 µM
- LC50 (lethal concentration, 50% cell kill) (786-0; read-out: pLC50 (converted)): 25.7 µM
- TGI (786-0; read-out: pTGI (converted)): 6.17 µM

SMILES: C#C[C@@]1(O)[C@@H](CO)O[C@@H](n2cc(F)c3c(N)ncnc32)[C@@H]1O
- TGI (MOLT-4; read-out: TGI): > 100 µM
- GI50 (MOLT-4): 0.302 µM
- CC50 (MOLT-4; [14]): > 100 µM
- TGI (MOLT-4; read-out: pTGI (converted)): > 100 µM
- CC50 (NCI-H322M; [13]): > 100 µM
- TGI (NCI-H322M; read-out: TGI): 4.48 µM
- GI50 (NCI-H322M): 0.501 µM
- TGI (NCI-H322M; read-out: pTGI (converted)): 4.47 µM
- CC50 (SW-620; [13]): > 100 µM
- TGI (SW-620; read-out: TGI): 2.9 µM
- GI50 (SW-620): 0.158 µM
- TGI (SW-620; read-out: pTGI (converted)): 2.88 µM
- CC50 (M14 [1]; [13]): > 100 µM
- TGI (M14 [1]; read-out: TGI): 2.39 µM
- GI50 (M14 [1]): 0.479 µM
- TGI (M14 [1]; read-out: pTGI (converted)): 2.4 µM
- TGI (A498; read-out: TGI): 2.27 µM
- GI50 (A498): 0.724 µM
- CC50 (A498; [14]): 5.89 µM
- TGI (A498; read-out: pTGI (converted)): 2.29 µM
- TGI (SN12C [2]; read-out: TGI): 4.74 µM
- CC50 (SN12C [2]): > 100 µM
- TGI (SN12C [2]; read-out: pTGI (converted)): 4.79 µM
- CC50 (BT-549; [13]): > 100 µM
- TGI (BT-549; read-out: TGI): 4.18 µM
- GI50 (BT-549): 0.851 µM
- TGI (BT-549; read-out: pTGI (converted)): 4.17 µM
- TGI (T47D; read-out: TGI): 0.77 µM
- GI50 (T47D): 0.214 µM
- CC50 (T47D): 20 µM
- TGI (T47D; read-out: pTGI (converted)): 0.776 µM
- growth at 0.01 µM (NCI-H226 [3]): 92%
- growth at 0.01 µM (HT-29): 96%
- growth at 0.01 µM (SNB-75): 92%
- growth at 0.01 µM (DU-145 [4]): 103%
- growth at 0.01 µM (Hs-578T [5]): 92%
- growth at 0.1 µM (HOP-62 [6]): 101%
- growth at 0.1 µM (NCI-H460): 76%
- growth at 0.1 µM (NCI-H522): 68%
- growth at 0.1 µM (M14 [7]): 95%
- growth at 0.1 µM (IGROV-1): 96%
- growth at 0.1 µM (OVCAR-4): 90%
- growth at 1 µM (A549): 19%
- growth at 1 µM (HOP-62 [8]): 33%
- growth at 1 µM (KM12): 35%
- growth at 1 µM (Hs-578T [9]): 97%
- growth at 10 µM (NCI-H226 [10]): -44%
- growth at 10 µM (HCT-15): -18%
- growth at 10 µM (MDA-MB-435): -26%
- growth at 10 µM (OVCAR-5): 5%
- growth at 10 µM (ACHN): 2%
- growth at 10 µM (SN12C [11]): -8%
- growth at 10 µM (DU-145 [12]): 1%
- growth at 100 µM (K562): 6%
- growth at 0.01 µM (UACC-62): 94%
- TGI (786-0; read-out: TGI): 2.84 µM
- GI50 (786-0): 0.708 µM
- TGI (786-0; read-out: pTGI (converted)): 2.82 µM

— ChEMBL document CHEMBL4270599, “Synthesis of a 3'-C-ethynyl-β-d-ribofuranose purine nucleoside library: Discovery of C7-deazapurine analogs as potent antiproliferative nucleosides” (Eur J Med Chem, 2018)
